Laboratory results as given in patent US11725026B2, “Compositions and methods for inhibiting lactate dehydrogenase a activity” (Research Foundation for SUNY, priority 2019, dated 2023).
Where a SMILES comes first, the peptide text is derived from it. Where no end group is shown, it is not given here.

Key:
[1] = test system: renal tumor tissue and adjacent normal kidney-tissue from a BHD patient; experiment: Ex vivo peptide treatment of BHD patient renal tumor and adjacent normal tissue; parameters: species or system human; settings: FLCN-10-Rhodamine B, 2 h at 37° C., fluorescence microscopy
Protocol: Tumor tissues from the BHD patient were obtained with written informed consent from the Department of Urology at SUNY (State University of New York) Upstate Medical University. At the time of partial nephrectomy, which was done with <15 min of renal ischemia, BHD tumors were dissected into 3-5 mm^3 pieces and cultured on a presoaked gelatin sponge (Johnson & Johnson) in 24-well plates containing 2 ml RPMI-1640 with 10% FBS, antibiotic/antimycotic solution. Tissues were cultured at 37° C. for 16 hr, followed by the addition of the indicated concentrations of FLCN-10-Rhod-B and further incubation at 37° C. for 2 hr.
Tumor and adjacent normal renal tissue from the BHD patient were obtained with written informed consent on an Institutional Review Board (IRB)-approved protocol from the Department of Urology at SUNY Upstate Medical University. At the time of partial nephrectomy, which was done with <15 min of renal ischemia, BHD tumors were dissected into 3- to 5-mm^3 pieces and cultured on a presoaked gelatin sponge (Johnson & Johnson) in 24-well plates containing 2 ml RPMI-1640 with 10% FBS and antibiotic/antimycotic solution. Tissues were cultured at 37° C. for 16 h, followed by the addition of the indicated concentrations of FLCN-10-Rhod-B and further incubation at 37° C. for 2 h. […]

LDHA [2] = target: T1, LDHA (Homo sapiens, UniProt P00338); experiment: LDH activity assay (MAK066) with recombinant LDHA; assay type: biochemical; settings: 25 ng recombinant LDHA pre-incubated with peptide 30 min on ice
T1 construct: a complex of FLCN-10 peptide with full-length recombinant LDHA; 6xHis (leader of vector pRSET-A) (N); made in house; host or cells: E. coli BL21 (DE3)
Protocol: Lactate dehydrogenase activity was measured according to the manufacturer's protocol (MAK066, Sigma-Aldrich). […] Samples were then transferred to an optically clear 96-well plate and substrate mix was added to each well. Absorbance was measured at 450 nm every five minutes until saturation. […] All experiments were carried out in triplicate.
Lactate dehydrogenase activity was measured according to the manufacturer's protocol (MAK066, Sigma-Aldrich). […] Samples were then transferred to an optically clear 96-well plate and substrate mix was added to each well. Absorbance was measured at 450 nm every five min until saturation.

LDHA (pTyr10-LDHA) = target: T2, LDHA (pTyr10-LDHA) (Homo sapiens, UniProt P00338); experiment: LDHA activity in cells by pTyr10-LDHA immunoblot; assay type: cell-based
T2 construct: a panel of cancer cell lines were immunoblotted to observe levels of endogenous FLCN and pTyr10-LDHA; endogenous in cells; host or cells: Caki-1, HEK293, PC3, A549 and other human cancer cell lines
Text: The supernatant was then transferred to a fresh microtube.

ccRCC cell lines = experiment: Apoptosis / cell death in ccRCC renal cell lines (cleaved PARP/caspase-3 immunoblot, Annexin V/propidium iodide flow cytometry); assay type: cell-based, human; settings: Caki-1 cells, Western blot, normalized for amount of peptide residing in cells
LDHA [3] = target: T1, LDHA; experiment: Fluorescence anisotropy binding of Rhodamine-B-labeled FLCN peptides to recombinant LDHA
Protocol: LDHA at the indicated concentrations was incubated on ice in 50 mM Tris pH 7.2, 150 mM NaCl, 1 mM TCEP, 4 mM MgCl2 with […] labelled FLCN peptide for 30 min.
Fluorescence anisotropy was measured using a SpectraMax 3 equipped with rhodamine fluorescence polarization module (lex\lem.535 nm/595 nm). Curve fitting was done in KaleidaGraph 4.0.
LDHA at the indicated concentrations was incubated on ice in 50 mM Tris pH 7.2, 150 mM NaCl, 1 mM TCEP, 4 mM MgCl2 with […] Rhodamine-B-labeled FLCN peptide for 30 min. Fluorescence anisotropy was measured in triplicate using a SpectraMax i3 equipped with rhodamine fluorescence polarization module (lex\lem.535 nm/595 nm). Curve fitting was done in KaleidaGraph 4.0.

## CSCC[C@H](NC(=O)[C@H](CCCNC(=N)N)NC(=O)[C@H](CCC(N)=O)NC(=O)[C@H](C)N)C(=O)N[C@@H](CC(N)=O)C(=O)N[C@H](C(=O)N[C@@H](C)C(=O)N[C@@H](Cc1ccccc1)C(=O)N[C@H](C(=O)N1CCC[C@H]1C(=O)O)[C@@H](C)O)[C@@H](C)O [FLCN-10] (H-AQRMNTAFTP-OH; N-terminus and C-terminus assumed)
[1]
  tissue penetration ex vivo: able to penetrate both normal and tumor tissues
LDHA [2]
  inhibitory effect on LDHA activity: 70%

## PEGylated FLCN-10: FLCN-10 peptide modified by PEGylation to protect from cellular proteases (AQRMNTAFTP; also: PEGylated, site not given here)
LDHA (pTyr10-LDHA)
  activity against LDHA in Caki-1 cells: effective at inhibiting LDHA activity
ccRCC cell lines
  pro-apoptotic activity of modified FLCN-10 peptides: minimal pro-apoptotic activity

## QRMNTAFTPFL [FLCN-1, peptide derived from aa220-230 of FLCN]
LDHA [3]; determined by anisotropy
  binding to LDHA (in words): bound tightly to LDHA
LDHA [3]; fluorescence polarization anisotropy, n=3
  Ka of LDHA with FLCN peptide: ≈ 1×10^7
